The values that follow come from US20030215930A1, “Genes involved in cyclododecanone degradation pathway” (priority 2002, published 2003).

The test system of assay [1] is Rhodococcus ruber SC1. Description: Growth of Rhodococcus ruber SC1 on cyclic ketones as sole carbon and energy source. It counts as cell-based. The settings on record: cyclic ketone as sole carbon and energy source. Here is the method: Synthetic S12 medium was used to establish enrichment. S12 medium contains the following: 10 mM ammonium sulfate, 50 mM potassium phosphate buffer (pH 7.0), 2 mM MgCl2, 0.7 mM CaCl2, 50 μM MnCl2, 1 μM FeCl3, 1 μM […], 1.72 μM CuSO4, 2.53 μM CoCl2, 2.42 μM […], and 0.0001% FeSO4. The carbon sources were added directly to the S12 medium and the bacteria were grown in sealed culture flasks.
S12 agar was used to test isolates that utilize compounds as the sole source of carbon and energy. S12 agar was prepared by adding 1.5% Noble agar (DIFCO) to S12 medium. Bacteria growing on S12 agar were supplied with volatile compounds such as cyclododecanone by sprinkling solids of the volatile compound on the interior of the petri dish lid or 5 μl of other volatile liquid as vapor. The petri dish was sealed with parafilm and incubated with the lid on the bottom.
Rhodococcus ruber SC1 isolated from cyclododecanone (C12 cyclic ketone) enrichment culture was also tested for growth on cyclic ketones of different carbon numbers as sole carbon and energy source (Table 3). It grows well on cyclopentadecanone (C15 cyclic ketone), cyclotridecanone (C13 cyclic ketone), cyclododecanone (C12 cyclic ketone) and cycloundecanone (C11 cyclic ketone).

In assay [2] the test system is monooxygenase and esterase on the S8C. As to the kind of experiment: Production of different chain length hydroxy acids from cyclic ketones by recombinant E. coli cosmid clone S8C (GC/MS). It counts as cell-based, Escherichia coli. The note with it: cyclic ketone substrate at 250 mg/L. As for the experimental part: Transformed XL1-Blue MR cells were grown in M9 medium with 0.4% glucose as sole carbon source. Substrate for conversion was added at early log phase (OD=0.2) and cells were allowed to grow at 30° C. for 20 additional hours. Cells were then frozen and thawed once, centrifiged, and supernatant was filtered through 0.2 μm filters. Filtrate was prepared for GC/MS analysis as described below.
Filtrate was first acidified to pH 2 using concentrated HCl. The acidified sample was extracted twice with methylene chloride or ethyl acetate. The extracts were combined and dried by adding anhydrous magnesium sulfate. Magnesium sulfate was then removed by filteration using Whatman 3MM filter paper and the remaining solvent in the filtrate was evaporated under a gentle stream of nitrogen. […]
Example 8 explores whether the cyclic substrates could be expanded to cyclic ketones of different chain length and whether corresponding hydroxy acids could be produced. […] Large amount of corresponding hydroxy acids were detected from S8C grown in the presence of C11, C12 and C13 cyclic ketones. Medium level of 15-hydroxy acid was detected from C15 cyclic ketone grown cells. Small amount of hydroxy acids was detected from cells grown on C6 and C10 cyclic ketones. […]

As to `O=C1CCCCC1` [C6, cyclohexanone], in assay [1], the “Growth of Rhodococcus ruber SC1” value was “does not grow”. In assay [2], the “Corresponding Hydroxy Acid Produced by E. coli Cosmids” value was “Small amount”.

With `O=C1CCCCCC1` [C7, cycloheptanone], in assay [1], the “Growth of Rhodococcus ruber SC1” value is “does not grow”.

As for `O=C1CCCCCCC1` [C8, cyclooctanone], in assay [1], the “Growth of Rhodococcus ruber SC1” value is listed as “does not grow”.

Consider `O=C1CCCCCCCCC1` [C10, cyclodecanone], for which, in assay [1], the “Growth of Rhodococcus ruber SC1” value is listed as “grows moderately well”. Besides, in assay [2], the “Corresponding Hydroxy Acid Produced by E. coli Cosmids” value is given as “Small amount”.

Take `O=C1CCCCCCCCCC1` [C11, cycloundecanone]: the “Growth of Rhodococcus ruber SC1” value in assay [1] is recorded as “grows well”.

With `O=C1CCCCCCCCCCC1` [C12, cyclododecanone], the “Growth of Rhodococcus ruber SC1” value in assay [1] was “grows well”.

As for `O=C1CCCCCCCCCCCC1` [C13, cyclotridecanone], in assay [1], the “Growth of Rhodococcus ruber SC1” value is “grows well”.

In the case of `O=C1CCCCCCCCCCCCCC1` [C15, cyclopentadecanone], in assay [1], the “Growth of Rhodococcus ruber SC1” value is on record as “grows well”.
